Literature values in US20060099208A1, “Method of potentiating the therapeutic action of monoclonal and polyclonal antibodies” (priority 2004, published 2006).
“Also recorded” adds a separate entry of the source. Like-named read-outs stand apart in the source and are kept apart here.

Columns and labels:
[1] = test system: tumor cells; settings: in-vitro; for killing of tumor cells: tumor cells and normal cells from American Type Culture Collection
[2] = test system: tumor cells; settings: mixed culture, normal and tumor cells grown together
[3] = test system: skin papilloma; settings: mice; pure fatty acid or fatty acid rich oils
[4] = test system: hepatoma; settings: rats; pure fatty acid or fatty acid rich oils
[5] = test system: ascitic tumor cells; settings: experimental animals; pure fatty acid or fatty acid rich oils
[6] = test system: normal cells
[7] = test system: tumor cells; settings: PUFA combined with anti-cancer drug
[8] = test system: colon cancer

| Compound | tumor cell proliferation [1] | killing of tumor cells [1] | selective tumoricidal action [2] | growth of skin papilloma [3] | formation and growth of hepatoma [4] | growth of ascitic tumor cells in the peritoneum [5] | survival of normal cells ([6]; in-vitro) | cytotoxic action of anti-cancer drugs doxorubicin, vincristine and cis-platinum [7] | survival of normal cells [6] | side effects ([8]; human, in vivo) | extension of colon cancer patients' lives ([8]; in combination with chemotherapy, trial of 900 patients) |
| --- | --- | --- | --- | --- | --- | --- | --- | --- | --- | --- | --- |
| CCCCC/C=C\C/C=C\C/C=C\C/C=C\CCCC(=O)O [AA, arachidonic acid] | decrease tumor cell proliferation | only tumor cells were killed; also recorded: selectively kill the tumor cells | effective to some extent | inhibit the growth | inhibit | inhibit | without having any significant action | can be augmented | – | – | – |
| CCCCC/C=C\C/C=C\C/C=C\CCCCC(=O)O [GLA, gamma-linolenic acid] | decrease tumor cell proliferation | only tumor cells were killed; also recorded: selectively kill the tumor cells | – | – | inhibit | inhibit | without having any significant action | can be augmented | – | – | – |
| CCCCC/C=C\C/C=C\C/C=C\CCCCCCC(=O)O [DGLA, dihomo-GLA] | decrease tumor cell proliferation | only tumor cells were killed; also recorded: selectively kill the tumor cells | – | inhibit the growth | inhibit | inhibit | – | – | without having any significant action | – | – |
| Avastin: humanized monoclonal antibody to VEGF developed by Genentech | – | – | – | – | – | – | – | – | – | many side effects | 5 months |
| CC/C=C\C/C=C\C/C=C\C/C=C\C/C=C\C/C=C\CCC(=O)O [DHA, docosahexaenoic acid] | – | – | – | – | – | – | without having any significant action | can be augmented | – | – | – |
| CC/C=C\C/C=C\C/C=C\C/C=C\C/C=C\CCCC(=O)O [EPA, eicosapentaenoic acid] | – | – | – | – | – | – | without having any significant action | can be augmented | – | – | – |
